Measurements reported in patent publication EP4582087A1, “PHARMACEUTICAL COMPOSITION FOR TREATING LYMPHOMA” (SymBio Pharmaceuticals Limited, priority 2022, dated 2024).

Assays:
EBNA1 = test: Western blot of EBNA1 expression in lymphoma cells; type: cell-based; conditions: NK-S1 and KAI-3; 0.1 and 1 µg/mL BCV for 72 hours; Fig. 4
Description: (§1) NK-S1 and KAI-3 cell lines were treated with 0.1 and 1 µg/mL BCV for 72 hours. Subsequently, whole-cell lysates were separated by SDS-PAGE using 4 to 15% Mini-PROTEAN™ TGX Stain-Free™ Protein Gel (Bio-Rad Laboratories, Inc., Hercules, CA, USA) and then transferred to a 0.2 µm PVDF membrane (Bio-Rad Laboratories, Inc., Hercules, California, USA). The membrane was blocked and then gently shaken overnight at 4°C in a solution containing 5% skimmed milk powder (Bio-Rad Laboratories, Inc., Hercules, CA, USA) or 5% bovine serum albumin (Sigma-Aldrich, Darmstadt, Germany), TBST solution (50 mM Tris/HCl, pH 7.4, 150 mM NaCl, 0.1% Tween-20), and primary antibodies (anti-EBNA1 antibody (Santa Cruz Biotechnology, Inc.) and anti-LMP1 antibody (Dako)). Exposure to an appropriate HRP-conjugated anti-mouse antibody (Cytiva, Washington D.C., USA) was performed for 1 hour. Finally, chemiluminescent detection was performed using SuperSignal Substrate Western Blotting Kit (Thermo Fisher Scientific Inc., Massachusetts, USA). Imaging was performed using ChemiDoc™ XRS+ (a system with Image Lab™ software, Bio-Rad Laboratories, Inc., Hercules, California, USA).

[1] = tested on: eleven NK/T lymphoma cell lines (KAI-3, NK-S1, NK-92, KHYG-1, NK-YS, MEC-04, SNK-1, SNK-6, YT, HANK-1, or SNT-8); test: Cell viability (CellTiter-Glo 2.0), eleven NK/T lymphoma cell lines; type: cell-based; conditions: Fig. 9
Description: The effect of BCV on cell viability was examined in eleven NK/T lymphoma cell lines (KAI-3, NK-S1, NK-92, KHYG-1, NK-YS, MEC-04, SNK-1, SNK-6, YT, HANK-1, or SNT-8). Cell viability was quantified using Promega CellTiter-Glo (registered trademark) 2.0 Cell Viability Assay (Promega Corporation, Madison, Wisconsin, USA) according to the manufacturer's protocol. In brief, cells were plated in a 96-well plate at a concentration of 2 × 10^3 cells per 100 µL of culture medium, and a drug was added at each concentration. After each time point, Promega CellTiter-Glo (registered trademark) 2.0 Cell Viability Assay reagent was added to the wells and incubated at room temperature for 10 minutes. Subsequently, […] was measured using a Tecan M200 Infinite 96-well plate reader and iControl software 1.6 (Tecan, Männedorf, Switzerland). Cell viability was calculated as a percentage of the control absorbance. A dose-response curve was generated by plotting the percentage of viable cells against the drug concentration to analyze the growth-inhibitory effect. The IC50 values were estimated using GraphPad Prism version 8.0.2 (GraphPad Software). All reactions were performed in triplicate (n = 3).

Myc = test: Whole transcriptome sequencing / GSEA / quantitative PCR, Myc expression; type: cell-based; conditions: NK-S1 and KAI-3
Description: (§2) BCV-treated NK-S1 and KAI-3 cell lines were subjected to sequencing of the entire transcription product. Gene set enrichment analysis (GSEA) was performed using the Molecular Signatures Database (MSigDB) Hallmark gene set. […] Quantitative PCR was performed using Maxima SYBR Green/ROX qPCR Master Mix (Thermo Scientific, USA). The ΔCt value of a gene's mRNA expression was calculated as the difference between the Ct value of the gene and that of an internal control, GAPDH. The ΔΔCt was calculated by subtracting the ΔCt value of the treatment group from the ΔCt value of an untreated control group. The fold change in expression was calculated using the formula 2^ΔΔCt.

HMGB1 = test: Immunogenic cell death: extracellular HMGB1 (Lumit HMGB1 immunoassay); type: cell-based; conditions: NK-S1 and KAI-3; BCV treatment; Fig. 6
Description: (§3) NK-S1 and KAI-3 cell lines were treated with BCV (0.1 ug/mL or 1 ug/mL) or DMSO alone for 72 hours. For calreticulin staining, cells were incubated with a calreticulin antibody (1:100, room temperature, 30 minutes) (#ab92516, Abcam Limited.) and washed prior to analysis. Then, the cells were resuspended in PBS and analyzed using a cell analyzer (BD LSR Fortessa, BD Biosciences, San Jose, CA, USA). Data were analyzed using FlowJo version 10.8.0 (BD Biosciences, San Jose, California). The extracellular level of HMGB1 in the case of BCV treatment was measured using Lumit HMGB1 immunoassay (Promega Corporation, Madison, Wisconsin, USA).

[2] = tested on: EBV-positive NK/T lymphoma cells (NK-S1); test: Cell viability (CellTiter-Glo 2.0), comparison with antiviral agents; type: cell-based; conditions: compared to acyclovir, ganciclovir, adefovir, foscarnet, and penciclovir, Fig. 2
Description: (§4) Cell viability was determined using Promega CellTiter-Glo (registered trademark) 2.0 Cell Viability Assay (Promega Corporation, Madison, Wisconsin, USA) according to the manufacturer's protocol. Specifically, lymphoma cells were plated in a 96-well plate at a concentration of 2 × 10^3 cells per 100 µL of culture medium, and a drug (BCV) was added to each well at each concentration. At each time point, Promega CellTiter-Glo (registered trademark) 2.0 Cell Viability Assay reagent was added to the wells and incubated at room temperature for 10 minutes. Subsequently, […] was measured using a Tecan M200 Infinite 96-well plate reader and IControl software 1.6 (Tecan, Männedorf, Switzerland). Cell viability was evaluated as a percentage of a control absorbance. A dose-response curve was generated by plotting the percentage of viable cells against the drug concentration to analyze the growth-inhibitory effect. The IC50 values were estimated using GraphPad Prism version 8.0.2 (GraphPad Software). All reactions were performed in triplicate (n = 3). Furthermore, EBV positivity or EBV negativity of the cells was detected based on the presence or absence of an EBV-derived transcript (e.g., EBER, EBNA1, and the like).
The experimental procedure was the same as in Example 1, except that BCV, acyclovir, ganciclovir, adefovir, foscarnet, and penciclovir were used as the drugs.

[3] = tested on: EBV-positive NK/T lymphoma; test: In vivo drug treatment of mice inoculated with NK-S1 cells; parameters: species or system NSG mice; conditions: 40 mg/kg intraperitoneally twice weekly
Description: In in vivo drug treatment with BCV, 6-week-old female NSG mice were inoculated with 0.5 × 10^6 cells (NK-S1), and BCV or a control solvent was administered intraperitoneally at a dosage of 40 mg/kg twice weekly. Tumor measurements were recorded twice weekly until the tumor size in the control group reached approximately 2000 mm^3. Mice were euthanized according to the IACUC guideline. The tumor sizes of the experimental group and the control group (n = 8 per group) were averaged at each time point (Days 1, 5, 8, 12, and 15) and compared statistically. Throughout the experiment, signs of toxicity including diarrhea and weight loss were monitored.

NK-S1 cell line = test: Combined treatment cell viability (CellTiter-Glo 2.0), Chou-Talalay combination index; type: cell-based; conditions: for type of combined effect based on the combination index value: CI less than 1 indicates synergism; for effect of combined treatment compared to each drug alone: Fig. 7
Description: NK-S1 cell line was treated with a selected dose of etoposide, gemcitabine, or gamma irradiation, with or without BCV (0.1 µg/mL). Cell viability was quantified using Promega CellTiter-Glo (registered trademark) 2.0 Cell Viability Assay (Promega Corporation, Madison, Wisconsin, USA) according to the manufacturer's protocol. A combination index (CI) was calculated using Chou-Talalay median-effect analysis to determine if the effect was synergism, an additive effect, or antagonism. Specifically, a CI value less than 1 indicates synergism, and a CI value more than 1 indicates antagonism. A CI value close to 1 (i.e., between 0.9 and 1.1) was considered indicative of an additive effect.

[4] = tested on: MYC-positive lymphoma cells (Raji, Daudi, VAL, BJAB, DB); test: Cell viability (CellTiter-Glo 2.0), MYC-positive B-cell lymphoma cell lines; type: cell-based; conditions: 96 hours, Fig. 8
Description: Different B-cell lymphoma cell lines were individually treated with each concentration of BCV for 96 hours. Cell viability was quantified using Promega CellTiter-Glo (registered trademark) 2.0 Cell Viability Assay (Promega Corporation, Madison, Wisconsin, USA) according to the manufacturer's protocol. Information on the presence or absence of EBV and the molecular information were obtained by referring to a public database. The cell lines shown in Fig. 8 have been reported to be classified into groups as follows: Raji and Daudi as Burkitt's lymphoma (BL) cell lines; VAL and DB as diffuse large B-cell lymphoma (DLBCL) cell lines; and BJAB as a BL cell line or a DLBCL cell line. All of these are B lymphomas in which MYC is either translocated or amplified. Raji, Daudi, and VAL are EBV-positive cell lines, while BJAB and DB are EBV-negative cell lines. VAL is triple-hit lymphoma and DB is double-hit lymphoma.

LMP1 = test: Western blot of LMP1 expression in lymphoma cells; type: cell-based; conditions: NK-S1 and KAI-3; 0.1 and 1 µg/mL BCV for 72 hours; Fig. 4
Description: as §1

calreticulin = test: Immunogenic cell death: calreticulin staining by flow cytometry; type: cell-based; conditions: NK-S1 and KAI-3; BCV 0.1 ug/mL or 1 ug/mL for 72 hours; Fig. 6
Description: as §3

STING pathway = test: Whole transcriptome sequencing / GSEA / quantitative PCR, STING pathway genes; type: cell-based; conditions: NK-S1 and KAI-3; BCV 0.1 µg/mL and 1 µg/mL; Figs. 5B and 5C
Description: as §2

[5] = tested on: NK/T lymphoma cells (KAI-3, NK-S1, KHYG-1); test: Cell viability (CellTiter-Glo 2.0), NK/T lymphoma cell proliferation; type: cell-based; conditions: Fig. 1
Description: as §4

[6] = BCV 0.1 µg/mL combined with etoposide
[7] = BCV 0.1 µg/mL combined with gemcitabine

With `CCCCCCCCCCCCCCCCOCCCOP(=O)(O)CO[C@H](CO)Cn1ccc(N)nc1=O` [BCV, [(2S)-1-(4-amino-2-oxopyrimidin-1-yl)-3-hydroxypropan-2-yl]oxymethyl-(3-hexadecoxypropoxy)phosphinic acid] the “expression level of EBNA1” value (EBNA1) was “reduced the expression level”, the IC50 values ([1]; four cell lines (KAI-3, NK-S1, NK-92, KHYG-1) versus the other seven cell lines) was “lower IC50 values compared to other cell lines” and the “sensitivity to BCV” value ([1]; four cell lines (KAI-3, NK-S1, NK-92, KHYG-1)) was “high sensitivity to BCV”. The Myc expression (Myc; BCV 0.1 µg/mL and 1 µg/mL, Fig. 5A) was “significantly reduced Myc expression”, the “expression of a gene group controlled by MYC” value (Myc; BCV-treated, Fig. 5) was “significantly reduced the expression of a gene group controlled by MYC” and the “release of HMGB1” value (HMGB1) was “clearly increased”. For the same molecule, the cell growth-suppressive effect [2] was “significantly better cell growth-suppressive effect”, the “enlargement of EBV-positive NK/T lymphoma (tumor size)” value ([3]; NK-S1 in NSG mice, Days 1-15, Figs. 3A to 3D) was “significantly suppressed the enlargement of EBV-positive NK/T lymphoma” and the “animal's health status” value ([3]; NSG mice) was “good”. The “signs of toxicity: diarrhea” value ([3]; NSG mice) was “no diarrhea observed”, the “type of combined effect based on the combination index value” (NK-S1 cell line; [6]) was “synergistic effect” and the “effect of combined treatment compared to each drug alone” value (NK-S1 cell line; [6]) was “significant enhancement of the effect”. For the same molecule, the “type of combined effect based on the combination index value” (NK-S1 cell line; [7]) was “synergistic effect”, the “effect of combined treatment compared to each drug alone” value (NK-S1 cell line; [7]) was “significant enhancement of the effect” and the “growth-suppressive effect on EBV-positive cells and EBV-negative cells” value ([4]; EBV-positive Raji, EBV-negative BJAB) was “strong growth-suppressive effect on both EBV-positive cells and EBV-negative cells”. For the same molecule, the “cell growth-suppressive action on MYC-positive lymphoma cells” value ([4]; Raji, BJAB) was “distinct cell growth-suppressive action”, the “expression level of LMP1” value (LMP1) was “reduced the expression level” and the “number of calreticulin-positive cells” value (calreticulin) was “clearly increased”. For the same molecule, the “expression of a gene group in the STING pathway” value (STING pathway) was “increased”, the “IC50 value of cell growth-suppressive action” value ([5]; EBV-positive (KAI-3 and NK-S1) versus EBV-negative (KHYG-1) NK/T lymphoma cells) was “significantly lower for EBV-positive NK/T lymphoma cells (KAI-3 and NK-S1) compared to EBV-negative NK/T lymphoma cells (KHYG-1)” and the “proliferation of NK/T lymphoma cells” value ([5]; KAI-3, NK-S1, KHYG-1) was “suppressed the proliferation of NK/T lymphoma cells”.
